Source: US20030224942A1, “Alkylamino-1,3,5-triazines, processes for their preparation and their use as herbicides and plant growth regulators” (priority 2001, published 2003)

Key:
[1] = test system: Chenopodium spp., Papaver spp., Polygonum spp., Veronica spp. or Viola spp.; assay: Post-emergence effect on weeds (greenhouse pot test, visual scoring); format: in vivo, monocotyledonous and dicotyledonous weeds; conditions: treated at three-leaf stage; visual scoring after about 3 to 4 weeks; application rate of 0.5 kg and less of active substance per hectare
[2] = test system: Cyperus spp., Echinochloa spp., Digitaria spp., Sagitaria spp. and Scirpus spp.; assay: Action on harmful plants in rice (paddy rice conditions, visual scoring); format: in vivo, typical rice weeds (gramineous and broad-leaved); conditions: applied into the dammed water, visual scoring about three weeks after application
In short: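 Under paddy conditions with 2-3 cm dammed water, transplanted and sown rice plus weeds were treated at three-leaf stage (E. crus-galli at 1.5 leaves). Pots stayed in greenhouse under optimum growth conditions for the test period, with visual assessment of damage.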

| SMILES | herbicidal activity post-emergence against harmful plants [1] | herbicidal activity against harmful plants which are typical for rice crops [2] |
| --- | --- | --- |
| CCC(F)c1nc(N)nc(NCc2cc(F)c(C(F)=C(F)F)c(F)c2)n1 (stereo not shown) [Product P26.49] | very good herbicidal activity | very good herbicidal activity |
| CC#Cc1ccc(CNc2nc(C)nc(N)n2)cc1 [Product P1.1583] | very good herbicidal activity | very good herbicidal activity |
| C#Cc1c(F)cc(CNc2nc(N)nc(C(F)CC)n2)cc1F (stereo not shown) [Product P26.352] | very good herbicidal activity | very good herbicidal activity |
| C#Cc1cc(CNc2nc(N)nc(C(C)(C)F)n2)ccc1F [Product P16.309] | very good herbicidal activity | very good herbicidal activity |
| CCc1nc(N)nc(NC(c2ccc(C(F)=C(F)F)cc2)C2CC2)n1 (stereo not shown) [Product P9.1568] | very good herbicidal activity | very good herbicidal activity |
| C#Cc1c(F)cc(CNc2nc(N)nc(C(C)F)n2)cc1F (stereo not shown) [Product P21.352] | very good herbicidal activity | very good herbicidal activity |
| CCc1nc(N)nc(NCc2cccc(C3CC3)c2)n1 [Product P6.1603] | very good herbicidal activity | very good herbicidal activity |
| CC(F)C#Cc1ccc(C(C)Nc2nc(N)nc(C(C)(C)F)n2)cc1 (stereo not shown) [Product P17.1598] | very good herbicidal activity | very good herbicidal activity |
| CC(C)c1nc(N)nc(NC(C)c2cc(F)c(C(F)=C(F)F)c(F)c2)n1 (stereo not shown) [Product P12.49] | very good herbicidal activity | very good herbicidal activity |
| C#Cc1ccc(C(C)Nc2nc(N)nc(C(C)C)n2)cc1C (stereo not shown) [Product P12.335] | very good herbicidal activity | very good herbicidal activity |
| Cc1nc(N)nc(NCc2cccc(C(F)=C(F)F)c2)n1 [Product P1.1567] | very good herbicidal activity | very good herbicidal activity |
| CC#Cc1cc(C(Nc2nc(N)nc(CC)n2)C2CC2)ccc1F (stereo not shown) [Product P9.384] | very good herbicidal activity | very good herbicidal activity |
| CC#Cc1cc(C(C)Nc2nc(N)nc(C(F)CC)n2)ccc1F (stereo not shown) [Product P27.384] | very good herbicidal activity | very good herbicidal activity |
| C#Cc1c(F)cc(C(C)Nc2nc(N)nc(C(C)F)n2)cc1F (stereo not shown) [Product P22.352] | very good herbicidal activity | very good herbicidal activity |
| C#Cc1ccc(C(C)Nc2nc(N)nc(C(C)F)n2)cc1F (stereo not shown) [Product P22.1620] | very good herbicidal activity | very good herbicidal activity |
| CCC(F)c1nc(N)nc(NCc2ccc(C(F)=C(F)F)cc2)n1 (stereo not shown) [Product P26.1568] | very good herbicidal activity | very good herbicidal activity |
| CC#Cc1c(F)cc(C(Nc2nc(N)nc(C(F)CC)n2)C2CC2)cc1F (stereo not shown) [Product P29.428] | very good herbicidal activity | very good herbicidal activity |
